Experimental data published in ChEMBL document CHEMBL1144193, “Design, synthesis, and evaluation of novel aryl-tetrahydropyridine PPARalpha/gamma dual agonists” (Bioorg Med Chem Lett, 2008).
Converted amounts (≈) assume the structure as drawn. Each block holds one compound with its values, some of them ahead of it.

Columns and labels:
[1] = molecular target: T1, Peroxisome proliferator-activated receptor alpha (Homo sapiens, UniProt Q07869); assay: Agonist activity at human PPARalpha expressed in african green monkey CV-1 by co-transfected with GAL4 by dual-glo luciferase reporter gene assay; type: functional
T1 sequence (Q07869 whole entry): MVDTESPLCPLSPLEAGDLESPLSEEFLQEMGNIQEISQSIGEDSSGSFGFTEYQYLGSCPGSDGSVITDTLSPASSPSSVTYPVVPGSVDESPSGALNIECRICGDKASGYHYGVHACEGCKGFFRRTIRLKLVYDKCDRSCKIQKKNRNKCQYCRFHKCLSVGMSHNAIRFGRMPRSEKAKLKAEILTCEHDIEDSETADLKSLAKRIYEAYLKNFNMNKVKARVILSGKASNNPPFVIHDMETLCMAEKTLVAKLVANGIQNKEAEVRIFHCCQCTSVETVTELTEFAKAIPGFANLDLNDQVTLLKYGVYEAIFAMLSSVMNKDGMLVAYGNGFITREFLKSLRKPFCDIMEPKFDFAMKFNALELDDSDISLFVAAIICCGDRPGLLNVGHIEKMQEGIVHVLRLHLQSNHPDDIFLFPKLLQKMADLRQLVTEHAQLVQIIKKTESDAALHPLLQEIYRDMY

[2] = molecular target: T2, Peroxisome proliferator-activated receptor gamma (Homo sapiens, UniProt P37231)
T2 sequence (P37231 whole entry): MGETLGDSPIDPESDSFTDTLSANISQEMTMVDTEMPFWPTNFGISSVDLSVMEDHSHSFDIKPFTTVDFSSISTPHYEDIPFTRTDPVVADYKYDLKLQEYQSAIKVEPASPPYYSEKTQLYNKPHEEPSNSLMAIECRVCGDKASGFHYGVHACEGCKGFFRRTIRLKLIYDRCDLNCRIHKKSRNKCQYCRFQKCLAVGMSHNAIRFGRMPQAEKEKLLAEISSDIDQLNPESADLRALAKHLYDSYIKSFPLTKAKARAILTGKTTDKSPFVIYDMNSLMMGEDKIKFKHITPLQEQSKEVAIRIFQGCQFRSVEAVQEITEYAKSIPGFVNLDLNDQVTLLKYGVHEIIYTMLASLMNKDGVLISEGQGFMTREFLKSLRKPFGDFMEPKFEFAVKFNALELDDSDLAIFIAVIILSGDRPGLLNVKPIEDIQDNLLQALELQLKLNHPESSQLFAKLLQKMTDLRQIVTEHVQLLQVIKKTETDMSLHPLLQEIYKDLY
Description: Agonist activity at human PPARgamma expressed in african green monkey CV-1 co-transfected with GAL4 by dual-glo luciferase reporter gene assay

[3] = Half life in Sprague-Dawley rat at 3 mg/kg, iv; type: ADME, organism-based; parameters: dose 3 mg/kg, route intravenous; conditions: in vivo
[4] = AUC (0 to 24 hrs) in Sprague-Dawley rat at 3 mg/kg, iv; type: ADME, organism-based; parameters: time < 24 hr, dose 3 mg/kg, route intravenous; conditions: plasma
[5] = Clearance in Sprague-Dawley rat at 3 mg/kg, iv; type: ADME, organism-based; parameters: dose 3 mg/kg, route intravenous; conditions: in vivo
[6] = Volume of distribution at steady state in Sprague-Dawley rat at 3 mg/kg, iv; conditions: in vivo
[7] = Tmax in Sprague-Dawley rat at 3 mg/kg, po; type: ADME, organism-based; parameters: dose 3 mg/kg, route oral; conditions: in vivo
[8] = Cmax in Sprague-Dawley rat at 3 mg/kg, po; type: ADME, organism-based; parameters: dose 3 mg/kg, route oral; conditions: in vivo
[9] = AUC (0 to 24 hrs) in Sprague-Dawley rat at 3 mg/kg, po; type: ADME, organism-based; parameters: time < 24 hr, dose 3 mg/kg, route oral; conditions: plasma
[10] = Solubility at pH 6.8; type: physicochemical; conditions: buffer
[11] = Oral bioavailability in Sprague-Dawley rat at 3 mg/kg; type: ADME, organism-based; conditions: in vivo
Mus musculus [12] = assay: Antihyperglycemic activity in db/db mouse assessed as reduction in plasma glucose level at 0.03 mg/kg, po once daily after 28 days relative to non-fasting control; type: functional; parameters: scale not given: the % may be the effect or the level left
Mus musculus [13] = assay: Antihyperglycemic activity in db/db mouse assessed as reduction in plasma glucose level at 0.1 mg/kg, po once daily after 28 days relative to non-fasting control; type: functional; parameters: scale not given: the % may be the effect or the level left
Mus musculus [14] = assay: Antihyperglycemic activity in db/db mouse assessed as reduction in plasma glucose level at 0.3 mg/kg, po once daily after 28 days relative to non-fasting control; type: functional; parameters: scale not given: the % may be the effect or the level left
Mus musculus [15] = assay: Antihyperglycemic activity in db/db mouse assessed as reduction in plasma glucose level at 1 mg/kg, po once daily after 28 days relative to non-fasting control; type: functional; parameters: scale not given: the % may be the effect or the level left
Mus musculus [16] = assay: Antihyperglycemic activity in db/db mouse assessed as increase in body weight at 0.03 mg/kg, po once daily after 28 days; type: functional
Mus musculus [17] = assay: Antihyperglycemic activity in db/db mouse assessed as increase in body weight at 0.1 mg/kg, po once daily after 28 days; type: functional
Mus musculus [18] = assay: Antihyperglycemic activity in db/db mouse assessed as increase in body weight at 0.3 mg/kg, po once daily after 28 days; type: functional
Mus musculus [19] = assay: Antihyperglycemic activity in db/db mouse assessed as increase in body weight at 1 mg/kg, po once daily after 28 days; type: functional
Mus musculus [20] = assay: Antihyperglycemic activity in po dosed db/db mouse assessed as reduction in glucose level after 28 days; type: functional; conditions: 672 h
Mus musculus [21] = assay: Antihyperglycemic activity in db/db mouse assessed as reduction in plasma glucose level at 3 mg/kg, po once daily after 28 days relative to non-fasting control; parameters: scale not given: the % may be the effect or the level left
Mus musculus [22] = assay: Antihyperglycemic activity in db/db mouse assessed as increase in body weight at 3 mg/kg, po once daily after 28 days

Structure (SMILES): CCOC(Cc1ccc(OCCN2CC=C(c3cccs3)CC2)cc1)C(=O)O (centres undefined)
- EC50 [1]: 8.58 µM
- EC50 [2]: 3.3 µM

Structure (SMILES): CCC(Cc1ccc(OCCN2CC=C(c3ccc(Cl)cc3)CC2)cc1)C(=O)O (centres undefined)
- EC50 [1]: 3.86 µM
- EC50 [2]: 5.29 µM

- EC50 [1]: 25.5 µM
- EC50 [2]: 4.88 µM
Structure (SMILES): CC(Cc1ccc(OCCN2CC=C(c3ccc(Cl)cc3)CC2)cc1)(Oc1ccccc1)C(=O)O (centres undefined)

Structure (SMILES): CCOC(Cc1ccc(OCCN2CC=C(c3ccccc3OC)CC2)cc1)C(=O)O (centres undefined)
- EC50 [1]: 18.1 µM
- EC50 [2]: 3.93 µM

Structure (SMILES): CCOC(Cc1ccc(OCCN2CC=C(c3cnccn3)CC2)cc1)C(=O)O (centres undefined)
- EC50 [1]: 3.67 µM
- EC50 [2]: 12.6 µM

Structure (SMILES): CCOC(Cc1ccc(OCCCN2CC=C(c3ccc(Cl)cc3)CC2)cc1)C(=O)O (centres undefined)
- EC50 [1]: 9.8 µM
- EC50 [2]: 2.32 µM

Structure (SMILES): CCOC(Cc1ccc(OCCN2CC=C(c3ccccn3)CC2)cc1)C(=O)O (centres undefined)
- EC50 [1]: 10.2 µM
- EC50 [2]: 2.3 µM

Structure (SMILES): CCO[C@@H](Cc1ccc(OCCN2CC=C(c3ccc(Cl)cc3)CC2)cc1)C(=O)O
- EC50 [1]: 1.73 µM
- half-life [3]: 1380 min
- AUC(0-t) at 24 h [4]: 272 µM·h
- clearance [5]: 0.23 mL/min/kg
- Vd [6]: 0.44 L/kg
- Tmax [7]: 30 min
- Cmax [8]: 15.9 µM
- AUC(0-t) at 24 h [9]: 270 µM·h
- solubility [10]: 3260 µg/mL (≈ 7590 µM)
- bioavailability [11]: > 100%
- Activity (Mus musculus [12]): 14%
- Activity (Mus musculus [13]): 37%
- Activity (Mus musculus [14]): 63%
- Activity (Mus musculus [15]): 77%
- Activity (Mus musculus [16]): 11.2 g
- Activity (Mus musculus [17]): 12.4 g
- Activity (Mus musculus [18]): 12.6 g
- Activity (Mus musculus [19]): 13.7 g
- ED30 (Mus musculus [20]): 0.067 mg/kg
- EC50 [2]: 0.639 µM

Structure (SMILES): CCOC(Cc1ccc(OCCN2CC=C(c3ccccc3C(F)(F)F)CC2)cc1)C(=O)O (centres undefined)
- EC50 [1]: 0.542 µM
- EC50 [2]: 7.56 µM

Structure (SMILES): CCOC(Cc1ccc(OCCN2CC=C(c3ccccc3Cl)CC2)cc1)C(=O)O (centres undefined)
- EC50 [1]: 7.72 µM
- EC50 [2]: 5.83 µM

Structure (SMILES): CCOC(Cc1ccc(OCCN2CC=C(c3ccc(C(F)(F)F)cc3)CC2)cc1)C(=O)O (centres undefined)
- EC50 [1]: 3.4 µM
- EC50 [2]: 1.89 µM

Structure (SMILES): CCOC(Cc1ccc(OCCN2CC=C(c3cccc(Cl)c3Cl)CC2)cc1)C(=O)O (centres undefined)
- EC50 [1]: 0.064 µM
- EC50 [2]: 0.661 µM

Structure (SMILES): CCOC(Cc1ccc(OCCN2CC=C(c3ncccn3)CC2)cc1)C(=O)O (centres undefined)
- EC50 [1]: 7.67 µM
- EC50 [2]: 4.6 µM

Structure (SMILES): CCOC(Cc1ccc(OCCCN2CC=C(c3ccc(Cl)c(Cl)c3)CC2)cc1)C(=O)O (centres undefined)
- EC50 [1]: 1.7 µM
- EC50 [2]: 0.728 µM

Structure (SMILES): COc1ccc(OC(=O)N(CC(=O)O)Cc2ccc(OCCc3nc(-c4ccccc4)oc3C)cc2)cc1 [MURAGLITAZAR]
- EC50 [1]: 4.11 µM
- half-life [3]: 840 min
- AUC(0-t) at 24 h [4]: 101 µM·h
- clearance [5]: 0.73 mL/min/kg
- Vd [6]: 0.57 L/kg
- Tmax [7]: 34.8 min
- Cmax [8]: 25.8 µM
- AUC(0-t) at 24 h [9]: 98.8 µM·h
- solubility [10]: 41 µg/mL (≈ 79.4 µM)
- bioavailability [11]: 96.2%
- Activity (Mus musculus [13]): 4%
- Activity (Mus musculus [14]): 11%
- Activity (Mus musculus [15]): 54%
- Activity (Mus musculus [21]): 78%
- Activity (Mus musculus [17]): 10.5 g
- Activity (Mus musculus [18]): 12.7 g
- Activity (Mus musculus [19]): 14.5 g
- Activity (Mus musculus [22]): 16.1 g
- ED30 (Mus musculus [20]): 0.411 mg/kg

Structure (SMILES): CN(CCOc1ccc(CC2SC(=O)NC2=O)cc1)c1ccccn1 (centres undefined) [ROSIGLITAZONE]
- half-life [3]: 63 min
- AUC(0-t) at 24 h [4]: 53.7 µM·h
- clearance [5]: 2.99 mL/min/kg
- Tmax [7]: 15 min
- Cmax [8]: 44.3 µM
- AUC(0-t) at 24 h [9]: 94.2 µM·h
- solubility [10]: 14 µg/mL (≈ 39.2 µM)
- bioavailability [11]: > 100%
- Activity (Mus musculus [13]): 17%
- Activity (Mus musculus [14]): 37%
- Activity (Mus musculus [15]): 56%
- Activity (Mus musculus [21]): 68%
- Activity (Mus musculus [17]): 10.5 g
- Activity (Mus musculus [18]): 11.1 g
- Activity (Mus musculus [19]): 12.5 g
- Activity (Mus musculus [22]): 13.9 g
- ED30 (Mus musculus [20]): 0.21 mg/kg

- EC50 [1]: 3.12 µM
- EC50 [2]: 0.704 µM
Structure (SMILES): CCO[C@@H](Cc1ccc(OCCc2ccc(OS(C)(=O)=O)cc2)cc1)C(=O)O [TESAGLITAZAR]
